Reference: patent US10525269B2, “Methods for improving heart function” (THE JOHNS HOPKINS UNIVERSITY, priority 2010, dated 2020)
Entries after “also recorded” stand apart in the source; their conditions may differ.

What was measured:
[1] = Pearce (2009); cited from earlier work
isolated myocytes = assay: Myocyte sarcomere shortening and whole-cell calcium transients; format: cell-based, dog; set-up: effect of PTX on zinterol-stimulated shortening and Ca2+ transients: dose or concentration left out as unconfirmed
Description: Myocyte sarcomere shortening and whole-cell calcium transients were assessed with an inverted microscope (Ellipse TE2001, Nikon) equipped with an image-fluorescence system (MyoCam, IonOptix).
Adenovirus-mediated gene transfer of GFP, RGS2, or RGS3 was implemented by adding a minimal volume of the FBS-free MEM containing the gene-carrying adenovirus (100 multiplicities of infection). The full volume of FBS-free MEM was supplied after culture for another 1 to 2 hours. RGS expression and myocyte functional changes were assessed at 24 hours after transfection.

cAMP = assay: Membrane-localized cAMP FRET probe (ICUE3) in isolated myocytes; format: cell-based, dog; settings: in presence of IBMX
Description: Adult myocytes were infected with an adenovirus expressing either the modified EPAC-based cAMP FRET sensor (ICUE3) (DiPilato et al. (1999) J Biol Chem. 274:22048-22052) or SR-localized PKA activity sensor SR-AKAR3 (Liu et al. (2011) Biochem Biophys Res Commun. 404:581-586). Just before study, cells were washed two times with Hanks' balanced salt solution and imaged at room temperature in the dark. Dual-emission ratio imaging used a 420DF20 excitation filter, a 450DRLP dichroic mirror, and two emission filters (475DF40 for cyan fluorescent protein and 535DF25 for yellow fluorescent protein) and was performed on a Zeiss Axiovert 200 M microscope with a MicroMAX BFT512 cooled charge-coupled device camera (Roper Scientific) controlled by MetaFluor 6.2 software (Universal Imaging). […]
To further clarify the nature of the altered β2-AR signalling, studies were performed in isolated myocytes infected with an adenovirus containing a plasma membrane-targeted adenosine 3′,5′-monophosphate (cAMP)-sensitive fluorescence resonance energy transfer (FRET) probe (ICUE3) based on the EPAC1 (exchange protein directly activated by cAMP 1) binding domain (FIG. 6A; DiPilato et al. (1999) J Biol Chem. 274:22048-22052). […]

PKA = assay: SR-localized PKA activity FRET sensor (SR-AKAR3) in myocytes; format: cell-based, dog
Description: Adult myocytes were infected with an adenovirus expressing either the modified EPAC-based cAMP FRET sensor (ICUE3) (DiPilato et al. (1999) J Biol Chem. 274:22048-22052) or SR-localized PKA activity sensor SR-AKAR3 (Liu et al. (2011) Biochem Biophys Res Commun. 404:581-586). Just before study, cells were washed two times with Hanks' balanced salt solution and imaged at room temperature in the dark. Dual-emission ratio imaging used a 420DF20 excitation filter, a 450DRLP dichroic mirror, and two emission filters (475DF40 for cyan fluorescent protein and 535DF25 for yellow fluorescent protein) and was performed on a Zeiss Axiovert 200 M microscope with a MicroMAX BFT512 cooled charge-coupled device camera (Roper Scientific) controlled by MetaFluor 6.2 software (Universal Imaging). Fluorescent images (taken every 20 to 30 s) were background-corrected by subtracting autofluorescence intensities of untransfected cells (or background with no cells) from the emission intensities of cells expressing reporters.
To further clarify the nature of the altered β2-AR signalling, studies were performed in isolated myocytes infected with an adenovirus containing a plasma membrane-targeted adenosine 3′,5′-monophosphate (cAMP)-sensitive fluorescence resonance energy transfer (FRET) probe (ICUE3) based on the EPAC1 (exchange protein directly activated by cAMP 1) binding domain (FIG. 6A; DiPilato et al. (1999) J Biol Chem. 274:22048-22052). After 24 hours, cells were stimulated with either zinterol or fenoterol, each in the presence of a broad-spectrum phosphodiesterase (PDE) inhibitor, IBMX. […] Previous studies have proposed that reduced Gαi coupling to the β2-AR can modify the targeting of cAMP, resulting in enhanced protein kinase A (PKA) activation of sarcoplasmic reticulum (SR) calcium handling proteins and thus augmentation of the Ca^2+ and associated myocyte shortening (Kuschel et al. (1999) J. Biol. Chem. 274:22048-22052).

CC(Cc1ccc(O)cc1)NCC(O)c1cc(O)cc(O)c1 (single isomer, unassigned) [fenoterol as a mixture of R,R-enantiomer and S,S-enantiomer, fenoterol]
mortality in asthma use [1]: worsened death

CC(Cc1ccc(O)cc1)NCC(O)c1cc(O)cc(O)c1 (stereo not shown) [fenoterol]
fenoterol response compared with zinterol alone (isolated myocytes; HFdys and HFsyn): augmented over zinterol alone
fenoterol-stimulated cAMP response (FRET ratio) (cAMP; all groups): all responded similarly; also recorded: similarly elevated response
PKA activation at the SR (PKA; cells from all models): PKA activation was detected
PKA activation at the SR (PKA; cells from all models, listed as Fenoterol): stimulated PKA at the SR in all models

CC(C)NCC(O)c1ccc(O)c(O)c1 (stereo not shown) [isoproterenol]
isoproterenol-stimulated shortening, relaxation, and peak calcium (isolated myocytes; AVA myocytes, compared with CRT): similar
isoproterenol-stimulated sarcomere shortening and relengthening, peak Ca2+ transient and decay rate (isolated myocytes; myocytes from HFdys or HFsyn): equally depressed; also recorded: markedly and similarly depressed
isoproterenol-stimulated sarcomere shortening and relengthening, peak Ca2+ transient and decay rate (isolated myocytes; myocytes from resynchronization models (CRT, V3A3)): back to near-control levels; also recorded: returned to control levels

CC(C)(Cc1ccccc1)NCC(O)c1ccc(O)c(NS(C)(=O)=O)c1 (stereo not shown) [zinterol]
response to zinterol (isolated myocytes; AVA cells): responded robustly
shortening and Ca2+ transient response to zinterol (isolated myocytes; cells from resynchronized hearts): enhanced responses
zinterol-stimulated cAMP increase (FRET ratio) (cAMP; resynchronization models vs other groups incl. control): exceeded that in the other groups; also recorded: greater response
PKA activation at the SR (PKA; CRT cells): activation was detectable; also recorded: showed PKA activation
PKA stimulation detected at the SR (PKA; myocytes from HFdys or HFsyn): negligible PKA stimulation

pertussis toxin [PTX]
effect of PTX on zinterol-stimulated functional or Ca2+ response (isolated myocytes; AVA myocytes): not further altered; also recorded: minimal augmentation
effect of PTX pretreatment on isoproterenol-stimulated sarcomere shortening (% SS) and whole-cell calcium transient (isolated myocytes; HFdys and HFsyn): greatly enhanced both behaviors
effect of PTX on zinterol-stimulated shortening and Ca2+ transients (isolated myocytes; cells from HFdys and HFsyn): greatly amplified the response; also recorded: marked augmentation
effect of PTX on zinterol-stimulated shortening and Ca2+ transients (isolated myocytes; cells from resynchronized hearts (CRT, V3A3)): little changed
effect of PTX on zinterol-stimulated shortening and Ca2+ transients (isolated myocytes; control myocytes): augmented zinterol-stimulated shortening and Ca^2+ transients slightly
effect of PTX pretreatment on isoproterenol-stimulated sarcomere shortening (% SS) and whole-cell calcium transient (isolated myocytes; resynchronized models): no impact
